Literature values, collected in patent US12042557B2, “Rapid establishment and/or termination of substantial steady-state drug delivery” (Intarcia Therapeutics, Inc., priority 2009, dated 2024).
Like-named read-outs stand apart in the source and are kept apart here.

Key:
[1] = test system: subjects on metformin-only background treatment, type 2 diabetes mellitus
[2] = in vivo
[3] = Treatment F: oral 100 mg/day, subjects with baseline HbA1c less than 9.0
[4] = Treatment F: oral once a day 100 mg/day, metformin background, Bergenstal 2010

Row | Compound | change of HbA1c for the study [1, 3] [%] | endpoint HbA1c % [1, 3] [%] | change of HbA1c for the study [1, 4] [%] | endpoint HbA1c % [1, 4] [%] | percentage of subjects who achieved an HbA1c of 7% or less [1, 4] [%] | half-life [2]
1 | N[C@@H](CC(=O)N1CCn2c(nnc2C(F)(F)F)C1)Cc1cc(F)c(F)cc1F [sitagliptin, Sitagliptin] | −0.5 | 7.2 | −0.9 | 7.6 | 31 | 
2 | PYY: 36 amino acid residue peptide amide [peptide YY] |  |  |  |  |  | approximately 8 minutes
